Assay results from patent publication US20100267561A1, “HERBICIDAL PYRIDAZINONE DERIVATIVES” (priority 2007, published 2010).

What was measured:
Type in all cases: in vivo
[1] = test system: bermudagrass (Cynodon dactylon); assay: Test B pre-/postemergence plant response; conditions: for Bermudagrass plant response rating: 8 g ai/ha
How it was run: (§1)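 Seeds were sown and sprayed preemergence, while plants at 2 to 18 cm (1- to 4-leaf stage) got postemergence sprays. Compounds were formulated in a non-phytotoxic solvent mixture with surfactant. After 13 to 15 days in a greenhouse, injury was rated visually against untreated controls, 0 (no effect) to 100 (complete control).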

[2] = test system: pigweed (Amaranthus retroflexus); assay: Test B pre-/postemergence plant response; conditions: for Pigweed plant response rating: 8 g ai/ha
How it was run: as §1

[3] = test system: wheat (Triticum aestivum); assay: Test B pre-/postemergence plant response; conditions: for Wheat plant response rating: 8 g ai/ha
How it was run: as §1

[4] = test system: common (oilseed) sunflower (Helianthus annuus); assay: Test B pre-/postemergence plant response; conditions: Preemergence
How it was run: as §1

[5] = test system: downy bromegrass (Bromus tectorum); assay: Test B pre-/postemergence plant response; conditions: for Bromegrass, Downy plant response rating: 8 g ai/ha
How it was run: as §1

[6] = test system: giant foxtail (Setaria faberii); assay: Test B pre-/postemergence plant response; conditions: for Foxtail, Giant plant response rating: 8 g ai/ha
How it was run: as §1

[7] = test system: Italian ryegrass (Lolium multiflorum); assay: Test B pre-/postemergence plant response; conditions: for Ryegrass, Italian plant response rating: 8 g ai/ha
How it was run: as §1

[8] = test system: morningglory (Ipomoea coccinea); assay: Test B pre-/postemergence plant response; conditions: for Morningglory plant response rating: 8 g ai/ha
How it was run: as §1

[9] = test system: lambsquarters (Chenopodium album); assay: Test B pre-/postemergence plant response; conditions: for Lambsquarters plant response rating: 8 g ai/ha
How it was run: as §1

[10] = test system: soybean (Glycine max); assay: Test B pre-/postemergence plant response; conditions: for Soybean plant response rating: 8 g ai/ha
How it was run: as §1

[11] = test system: surinam grass (Brachiaria decumbens); assay: Test B pre-/postemergence plant response; conditions: for Surinam Grass plant response rating: 8 g ai/ha
How it was run: as §1

[12] = test system: canarygrass (Phalaris minor); assay: Test B postemergence plant response; conditions: for Plant response rating, Canarygrass: Postemergence
How it was run: (§2)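 Following treatment of plants 2 to 18 cm high after emergence, pots were held under glass for 13 to 15 days; efficacy was then graded visually, 100 denoting complete control and a dash no test result.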

[13] = test system: winter barley (Hordeum vulgare); assay: Test B postemergence plant response; conditions: for Plant response rating, Barley: Postemergence, scale 0 to 100, 0 no effect, 100 complete control
How it was run: as §2

[14] = test system: chickweed (Stellaria media); assay: Test B postemergence plant response; conditions: for Plant response rating, Chickweed: Postemergence
How it was run: as §2

[15] = test system: windgrass (Apera spica-venti); assay: Test B postemergence plant response; conditions: for Plant response rating, Windgrass: Postemergence
How it was run: as §2

[16] = Postemergence, 16 g ai/ha, scale 0 to 100
[17] = Postemergence, 31 g ai/ha, scale 0 to 100, 0 no effect, 100 complete control
[18] = Postemergence, 62 g ai/ha, scale 0 to 100, 0 no effect, 100 complete control
[19] = Preemergence, 16 g ai/ha, scale 0 to 100 (0 no effect, 100 complete control)
[20] = Preemergence, 31 g ai/ha, 0 to 100 scale, 0 no effect, 100 complete control
[21] = Preemergence, 62 g ai/ha, scale 0 to 100
[22] = 8 g ai/ha, postemergence, 0-100 scale
[23] = 31 g ai/ha, scale 0 to 100, 0 no effect, 100 complete control
[24] = 62 g ai/ha, scale 0 to 100, 0 no effect, 100 complete control

`Cc1cc(-c2ccc(Cl)cc2)nn1-c1c(OC(=O)C(C)C)cnn(C)c1=O` [Compound 34] was tested, and the “Bermudagrass plant response rating” value ([1]; postemergence, 0-100 scale) was 65, the “Plant response rating, Bermudagrass” value [1, 16] was 100 and the “Plant response rating, Bermudagrass” value [1, 17] was 100. The “Plant response rating, Bermudagrass” value [1, 18] was 100, the “Bermudagrass plant response rating” value ([1]; Preemergence, scale 0 to 100 (0 no effect, 100 complete control)) was 50 and the “Plant response rating, Bermudagrass” value [1, 19] was 98. For the same compound, the “Plant response rating, Bermudagrass” value [1, 20] was 98, the “Plant response rating, Bermudagrass” value [1, 21] was 100 and the “Pigweed plant response rating” value ([2]; postemergence, 0-100 scale) was 0. The “Plant response rating, Pigweed” value [2, 16] was 0, the “Plant response rating, Pigweed” value [2, 17] was 0 and the “Plant response rating, Pigweed” value [2, 18] was 0. The “Plant response rating, Pigweed” value [2, 19] was 0, the “Plant response rating, Pigweed” value [2, 20] was 0 and the “Plant response rating, Pigweed” value [2, 21] was 0. The “Pigweed plant response rating” value ([2]; Preemergence, scale 0 to 100) was 0, the “Wheat plant response rating” value ([3]; postemergence, 0-100 scale) was 0 and the “Plant response rating, Wheat” value [3, 16] was 40. For the same compound, the “Plant response rating, Wheat” value [3, 18] was 90, the “Plant response rating, Wheat” value [3, 19] was 0 and the “Plant response rating, Wheat” value [3, 20] was 30. The “Plant response rating, Wheat” value [3, 21] was 40, the “Wheat plant response rating” value ([3]; Preemergence, scale 0 to 100) was 0 and the “Plant response rating, Sunflower” value ([4]; 16 g ai/ha, scale 0 to 100 (0 no effect, 100 complete control)) was 0. For the same compound, the “Plant response rating, Sunflower” value ([4]; 31 g ai/ha, 0 to 100 scale, 0 no effect, 100 complete control) was 0, the “Plant response rating, Sunflower” value ([4]; 62 g ai/ha, scale 0 to 100) was 0 and the “Sunflower plant response rating” value ([4]; 8 g ai/ha, scale 0 to 100) was 0. The “Bromegrass, Downy plant response rating” value ([5]; postemergence, 0-100 scale) was 20, the “Plant response rating, Bromegrass, Downy” value [5, 16] was 50 and the “Plant response rating, Bromegrass, Downy” value [5, 17] was 50. For the same compound, the “Plant response rating, Bromegrass, Downy” value [5, 18] was 80, the “Plant response rating, Bromegrass, Downy” value [5, 19] was 55 and the “Plant response rating, Bromegrass, Downy” value [5, 20] was 55. For the same compound, the “Plant response rating, Bromegrass, Downy” value [5, 21] was 80, the “Bromegrass, Downy plant response rating” value ([5]; Preemergence, scale 0 to 100) was 0 and the “Foxtail, Giant plant response rating” value ([6]; postemergence, 0-100 scale) was 80. For the same compound, the “Plant response rating, Foxtail, Giant” value [6, 16] was 90, the “Plant response rating, Foxtail, Giant” value [6, 17] was 100 and the “Plant response rating, Foxtail, Giant” value [6, 18] was 100. For the same compound, the “Plant response rating, Foxtail, Giant” value [6, 19] was 100, the “Plant response rating, Foxtail, Giant” value [6, 20] was 100 and the “Plant response rating, Foxtail, Giant” value [6, 21] was 100. For the same compound, the “Foxtail, Giant plant response rating” value ([6]; Preemergence, scale 0 to 100) was 98, the “Ryegrass, Italian plant response rating” value ([7]; postemergence, 0-100 scale) was 70 and the “Plant response rating, Ryegrass, Italian” value [7, 16] was 85. For the same compound, the “Plant response rating, Ryegrass, Italian” value [7, 17] was 95, the “Plant response rating, Ryegrass, Italian” value [7, 18] was 100 and the “Plant response rating, Ryegrass, Italian” value [7, 19] was 100. The “Plant response rating, Ryegrass, Italian” value [7, 20] was 100, the “Plant response rating, Ryegrass, Italian” value [7, 21] was 100 and the “Ryegrass, Italian plant response rating” value ([7]; Preemergence, scale 0 to 100) was 100. For the same compound, the “Morningglory plant response rating” value ([8]; postemergence, 0-100 scale) was 0, the “Plant response rating, Morningglory” value [8, 16] was 0 and the “Plant response rating, Morningglory” value [8, 17] was 0. The “Plant response rating, Morningglory” value [8, 18] was 0, the “Plant response rating, Morningglory” value [8, 19] was 0 and the “Plant response rating, Morningglory” value [8, 20] was 0. For the same compound, the “Plant response rating, Morningglory” value [8, 21] was 0, the “Morningglory plant response rating” value ([8]; Preemergence, scale 0 to 100) was 0 and the “Lambsquarters plant response rating” value ([9]; postemergence, 0-100 scale) was 0. The “Plant response rating, Lambsquarters” value [9, 16] was 0, the “Plant response rating, Lambsquarters” value [9, 17] was 0 and the “Plant response rating, Lambsquarters” value [9, 18] was 0. The “Plant response rating, Lambsquarters” value [9, 19] was 0, the “Plant response rating, Lambsquarters” value [9, 20] was 0 and the “Plant response rating, Lambsquarters” value [9, 21] was 0. The “Lambsquarters plant response rating” value ([9]; Preemergence, scale 0 to 100) was 0, the “Soybean plant response rating” value ([10]; postemergence, 0-100 scale) was 0 and the “Plant response rating, Soybean” value [10, 16] was 0. For the same compound, the “Plant response rating, Soybean” value [10, 18] was 0, the “Plant response rating, Soybean” value [10, 19] was 0 and the “Plant response rating, Soybean” value [10, 20] was 0. For the same compound, the “Plant response rating, Soybean” value [10, 21] was 0, the “Soybean plant response rating” value ([10]; Preemergence, scale 0 to 100) was 0 and the “Surinam Grass plant response rating” value ([11]; postemergence, 0-100 scale) was 70. The “Plant response rating, Surinam Grass” value [11, 16] was 80, the “Plant response rating, Surinam Grass” value [11, 18] was 100 and the “Plant response rating, Surinam Grass” value [11, 19] was 100. For the same compound, the “Plant response rating, Surinam Grass” value [11, 20] was 100, the “Plant response rating, Surinam Grass” value [11, 21] was 100 and the “Surinam Grass plant response rating” value ([11]; Preemergence, scale 0 to 100) was 95. For the same compound, the “Canarygrass plant response rating” value [12, 22] was 10, the “Plant response rating, Canarygrass” value ([12]; 16 g ai/ha, scale 0 to 100) was 10 and the “Plant response rating, Canarygrass” value [12, 23] was 20. For the same compound, the “Plant response rating, Canarygrass” value [12, 24] was 20, the “Barley plant response rating” value [13, 22] was 0 and the “Plant response rating, Barley” value ([13]; 16 g ai/ha) was 0. The “Plant response rating, Barley” value ([13]; 31 g ai/ha) was 0, the “Plant response rating, Barley” value ([13]; 62 g ai/ha) was 15 and the “Chickweed plant response rating” value [14, 22] was 0. For the same compound, the “Plant response rating, Chickweed” value ([14]; 16 g ai/ha, scale 0 to 100) was 0, the “Plant response rating, Chickweed” value [14, 23] was 0 and the “Plant response rating, Chickweed” value [14, 24] was 0. The “Windgrass plant response rating” value [15, 22] was 0, the “Plant response rating, Windgrass” value ([15]; 16 g ai/ha, scale 0 to 100) was 10 and the “Plant response rating, Windgrass” value [15, 24] was 80.
